Laboratory results published in ChEMBL document CHEMBL1155980, “Prenyloxyphenylpropanoids as a novel class of anticonvulsive agents” (2009).
Calls of active or inactive are those of the source. No cut-off for these calls is given here.

Columns and labels:
Mus musculus [1] = experiment: Anticonvulsant activity in mouse at 300 mg/kg, ip after 15 mins by MES test; type: functional, organism-based; set-up: dose 300 mg/kg
Mus musculus [2] = experiment: Anticonvulsant activity in mouse at 300 mg/kg, ip after 30 mins by MES test; type: functional, organism-based; set-up: dose 300 mg/kg
Mus musculus [3] = experiment: Anticonvulsant activity in mouse at 300 mg/kg, ip after 60 mins by MES test; type: functional, organism-based; set-up: dose 300 mg/kg
Mus musculus [4] = experiment: Anticonvulsant activity in mouse at 300 mg/kg, ip after 120 mins by MES test; type: functional, organism-based; set-up: dose 300 mg/kg
Mus musculus [5] = species: Mus musculus; experiment: Anticonvulsant activity in mouse after 5 mins by MES test; type: functional
Mus musculus [6] = species: Mus musculus; experiment: Anticonvulsant activity in mouse after 15 mins by MES test; type: functional; details: 0.25 h
Mus musculus [7] = species: Mus musculus; experiment: Anticonvulsant activity in mouse after 30 mins by MES test; type: functional; details: 0.5 h
Mus musculus [8] = species: Mus musculus; experiment: Anticonvulsant activity in mouse after 60 mins by MES test; type: functional; details: 1 h
Mus musculus [9] = experiment: Anticonvulsant activity in mouse at 300 mg/kg, ip after 5 mins by MES test; type: functional, organism-based; set-up: dose 300 mg/kg
Thoracic aorta = experiment: Muscle relaxant activity in rat thoracic aorta assessed as inhibition of KCl-induced contraction at 100 uM; type: functional

Compound	Activity (Mus musculus [1])	Activity (Mus musculus [2])	Activity (Mus musculus [3])	Activity (Mus musculus [4])	ED50 (Mus musculus [5])	ED50 (Mus musculus [6])	ED50 (Mus musculus [7])	ED50 (Mus musculus [8])	Activity (Mus musculus [9])	inhibition at 100 µM (Thoracic aorta)
COc1c(OC/C=C(\C)CCC=C(C)C)ccc2ccc(=O)oc12	inactive	inactive	inactive	inactive						
COc1cc(/C=C/C(=O)O)ccc1OC/C=C(\C)CCC=C(C)C	Active	Active		inactive	225 mg/kg	224 mg/kg	224 mg/kg	> 350 mg/kg		
CC(C)=CCOc1ccc(CCC(=O)O)cc1	inactive	inactive	inactive	inactive					inactive	
CC(C)=CCC/C(C)=C/COc1ccc(/C=C/C(=O)O)cc1	inactive	inactive	inactive	inactive					inactive	
CC(C)=CCOc1ccc2ccc(=O)oc2c1 [7-PRENYLOXYCOUMARIN]	Active	Active		inactive	> 350 mg/kg	238 mg/kg	221 mg/kg	> 350 mg/kg	Active	80%
COc1cc(/C=C/C(=O)O)ccc1OCC=C(C)C	inactive	inactive	inactive	inactive					inactive	
COc1c(OCC=C(C)C)ccc2ccc(=O)oc12	inactive	inactive	inactive	inactive					inactive	
CC(=O)c1ccc(OC/C=C(\C)CCC=C(C)C)cc1O	inactive	inactive	inactive	inactive					inactive	
CC(=O)c1ccc(OCC=C(C)C)cc1O	inactive	inactive	inactive	inactive					inactive	
COc1cc(C(=O)O)ccc1OCC=C(C)C	inactive	inactive	inactive	inactive					inactive	
CC(C)=CCOc1ccc(/C=C/C(=O)O)cc1	Active			inactive	228 mg/kg	262 mg/kg	312 mg/kg	> 350 mg/kg	Active	
CC(C)=CCOc1ccc(C(=O)/C=C/c2ccccc2)c(O)c1	inactive	inactive	inactive	inactive					inactive	
CC(C)=CCC/C(C)=C/COc1ccc(C(=O)/C=C/c2ccc(O)cc2)c(O)c1	inactive	inactive	inactive	inactive					inactive	
CC(C)=CCC/C(C)=C/COc1ccc2ccc(=O)oc2c1	inactive	inactive	inactive						inactive	
CC(C)=CCOc1ccc2ccc(=O)oc2c1O		inactive	inactive	inactive						
CC(C)=CCOc1ccc(C(=O)/C=C/c2ccc(O)cc2)c(O)c1	inactive	inactive	inactive	inactive					inactive	
COc1cc(C(=O)O)ccc1OC/C=C(\C)CCC=C(C)C	inactive	inactive	inactive	inactive					inactive	
